Source: patent US11407812B2, “Targeted expression of chloride channels and methods of use thereof” (GOLEINI INC., priority 2015, dated 2022)

What was measured:
[1] = tested on: SNI model of neuropathic pain in the rat; assay: Spared nerve injury (SNI) model of neuropathic pain, von Frey withdrawal threshold (Example 5); type: in vivo; conditions: for withdrawal threshold / reduction of the allodynic response: Control vector animals
Description: Under isoflurane anesthesia the skin on the lateral surface of the thigh was incised and a section made directly through the biceps femoris muscle exposing the sciatic nerve and its three terminal branches: the sural, common peroneal and tibial nerves. The SNI procedure comprised an axotomy and ligation of the tibial and common peroneal nerves leaving the sural nerve intact. The common peroneal and the tibial nerves were tight-ligated with 5.0 silk and sectioned distal to the ligation, removing 2±4 mm of the distal nerve stump. Great care was taken to avoid any contact with or stretching of the intact sural nerve. Muscle and skin were closed in two layers (Decosterd I. and Woolf C. (2000) Pain 87(2):149-158). In the current study this was considered as Day 0.
Testing was performed during the day portion of the circadian cycle only (06:00-18:00 h). Rats were placed in an inverted plastic cage on an elevated wire mesh platform which allowed full access to the paws. Behavioral accommodation was allowed for approximately 15 min, until cage exploration and major grooming activities ceased. The area tested was the lateral region of the plantar left hind paw, in the sural nerve distribution, avoiding the less sensitive tori (footpads). The paw was touched with 1 of a series of 8 von Frey filaments with logarithmically incremental stiffness (0.41, 0.70, 1.20, 2.00, 3.63, 5.50, 8.50, and 15.10 g) (Stoelting). The von Frey filament was presented perpendicular to the plantar surface with sufficient force to cause slight buckling against the paw, and held for approximately 6-8 s. Stimuli were presented at intervals of several seconds, allowing for apparent resolution of any behavioral responses to previous stimuli. A positive response was noted if the paw was sharply withdrawn. Flinching immediately upon removal of the hair was also considered a positive response. Ambulation was considered an ambiguous response, and in such cases the stimulus was repeated. Based on observations on normal, un-operated rats, the cut-off of a 15.10 g filament (˜10% of the body weight of the smaller rats) was selected as the upper limit for testing, since stiffer filaments tended to raise the entire limb rather than to buckle, substantially changing the nature of the stimulus (Chaplan S. et al. (1994) J Neurosci Methods 53(1): 55-63).
One day prior to the surgery (Day −1) animals were tested for their baseline response to mechanical stimulation (mechanical sensitivity). At 10 days post-surgery all animals were re-tested for their mechanical sensitivity.
At days 13, 22 and 35 post-treatment (days 23, 32 and 45 post-surgery) animals were re-evaluated for their mechanical sensitivity. For all of these measurements the operator was blinded as to the identity of the animals.
At day 36 post-treatment (day 46 post-surgery) the animals were dosed with gabapentin (100 mg/kg: IP). At 1 hour and 2 hours post-gabapentin administration the animals were evaluated for their sensitivity to mechanical stimulation.
The 50% withdrawal threshold was determined using the up-down method of Dixon (Chaplan S. et al. (1994) J Neurosci Methods 53(1):55-63; Dixon W J. (1980) Ann. Rev. Pharmacol. Toxicol. 20:441-462). In this paradigm, testing was initiated with the 2.0 g filament, in the middle of the series. Stimuli were always presented in a consecutive fashion, whether ascending or descending. In the absence of a paw withdrawal response to the initially selected filament, a stronger stimulus was presented; in the event of paw withdrawal, the next weaker stimulus was chosen. According to Dixon, optimal threshold calculation by this method requires 6 responses in the immediate vicinity of the 50% threshold. Since the threshold is not known, strings of similar responses may be generated as the threshold is approached from either direction.

GlyR α-subunit (hGlyRa1) = biological target: T1, GlyR α-subunit (hGlyRa1) (Homo sapiens, UniProt P23415); assay: FLIPR membrane potential assay in HEK-293 cells expressing hGlyRa1; type: cell-based
T1 construct: P2A-mEYFP (C); host or cells: HEK-293
T1 sequence (P23415 29-457): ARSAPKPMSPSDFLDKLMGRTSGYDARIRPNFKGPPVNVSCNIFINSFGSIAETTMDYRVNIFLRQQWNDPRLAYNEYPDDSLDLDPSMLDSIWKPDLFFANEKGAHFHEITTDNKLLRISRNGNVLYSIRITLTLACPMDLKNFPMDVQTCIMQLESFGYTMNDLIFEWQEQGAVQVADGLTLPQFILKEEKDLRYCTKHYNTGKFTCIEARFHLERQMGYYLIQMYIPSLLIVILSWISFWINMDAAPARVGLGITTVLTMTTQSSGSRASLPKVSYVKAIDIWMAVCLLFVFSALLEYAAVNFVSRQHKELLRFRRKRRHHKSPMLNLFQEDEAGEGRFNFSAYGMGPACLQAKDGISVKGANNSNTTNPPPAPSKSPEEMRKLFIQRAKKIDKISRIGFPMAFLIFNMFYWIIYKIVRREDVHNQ
Description: For FlexStation assays, HEK-293 cells were plated at 20,000 cells/well, with a plating volume of 100 μl/well, in a black-sided/clear-bottomed 96-well imaging plate (BD Falcon #353219). For transfection, […] in 750 μl Opti-MEM (Gibco 31985-070) was mixed with 30 μl ExpressFect in 750 μl Opti-MEM, pre-incubated for 20 minutes, and then added at 15 μl/well to cells containing 100 μl fresh culture media. Cells were transfected 24 hours after plating and assayed 48 hours after transfection.
A fluorescence-based assay employing the FLIPR Membrane Potential Assay Kit, BLUE formulation, (Molecular Devices, #R8042) was used to detect voltage changes across the cell membrane. Dye loading buffer was prepared according to package literature. Specifically, the contents of one vial of BLUE reagent was dissolved with 5 ml of 1×Assay Buffer, followed by a wash of the vial with another 5 ml of 1× Assay Buffer, to yield a total volume of 10 ml of dye loading buffer. Unused portions of dye loading buffer were stored at −20° C. and used within 5 days. […] Cells were then loaded with 50 μl of Blue dye loading buffer and incubated for 40 min at 37° C./5% CO2. The signal was detected using the FlexStation 3 multimode benchtop microplate reader operated by SoftMax Pro Data Acquisition & Analysis Software (Molecular Devices). Excitation and emission wavelengths were set at 530 nm and 565 nm, respectively, with an emission cut-off of 550 nm. Plate reads were performed at 30° C. with a ‘Low PMT’ setting. […] Other FlexStation parameters included a pipette height of 130 an initial well volume of 100 μl, a transfer volume of 50 μl (therefore, drug concentrations were prepared 3×), and a transfer rate setting of 2, corresponding to ˜31 μl/sec.

GlyR = conditions: read-out: EC50 for gating of GlyR; cited from earlier work
[2] = in vivo; cited from earlier work
[3] = tested on: wild-type α-subunit of the GluCl glutamate receptor; assay: FLIPR membrane potential assay in HEK-293 cells expressing wild-type GluCl α-subunit; type: cell-based, Caenorhabditis elegans
Description: Cells were transfected 24 hours after plating and assayed 48 hours after transfection.
A fluorescence-based assay employing the FLIPR Membrane Potential Assay Kit, BLUE formulation, (Molecular Devices, #R8042) was used to detect voltage changes across the cell membrane. Dye loading buffer was prepared according to package literature. Specifically, the contents of one vial of BLUE reagent was dissolved with 5 ml of 1× Assay Buffer, followed by a wash of the vial with another 5 ml of 1× Assay Buffer, to yield a total volume of 10 ml of dye loading buffer. Unused portions of dye loading buffer were stored at −20° C. and used within 5 days. For the functional assay, culture medium was removed from the cells and replaced with 50 DMEM. Cells were then loaded with 50 μl of Blue dye loading buffer and incubated for 40 min at 37° C./5% CO2. The signal was detected using the FlexStation 3 multimode benchtop microplate reader operated by SoftMax Pro Data Acquisition & Analysis Software (Molecular Devices). Excitation and emission wavelengths were set at 530 nm and 565 nm, respectively, with an emission cut-off of 550 nm. Plate reads were performed at 30° C. with a ‘Low PMT’ setting. Run times, of which the first 20 s measured basal fluorescence, were 300 s for ivermectin-induced signals. […]

[4] = biological target: T2, L9′A mutated GluCl α-subunit (GluCl*) (Caenorhabditis elegans, UniProt G5EBR3, L315A); type: cell-based; conditions: increasing doses of ivermectin, cells expressing GluCl*
T2 construct: expressed in transfected cells; host or cells: HEK-293

[5] = tested on: Human airway smooth muscle (HASM) cells; assay: Histamine-induced increase in intracellular Ca++ (Fluo 8); type: cell-based
Description: Human airway smooth muscle (HASM) cells were derived from tracheas obtained from the National Disease Research Interchange (Philadelphia, Pa., USA) and from the International Institute for the Advancement of Medicine (Edison, N.J., USA). The cells were cultured in Ham's F-12 medium supplemented with 10% FBS, 100 U mL^−1 penicillin, 0.1 mg mL^−1 streptomycin and 2.5 mg mL^−1 amphotericin B, and this medium was replaced every 72 h. HASM cells in subculture during passages 1-5 were used, because these cells retain the expression of native contractile protein. The HASM cells were derived from healthy normal donors.
Cells were serum starved for 24 hr and loaded with Fluo 8 calcium sensing dye for 1 hr prior to stimulation with histamine. […] All data from both studies is expressed as relative fluorescent units.

HEK-293 cells = type: cell-based, human; conditions: 48 hours post-transfection
Description: […]. […] […]. […] Five separate wells were evaluated for each condition (un-transfected, mock-transfected, GluCl and GluCl*).

T2 sequence (G5EBR3 21-461 L315A): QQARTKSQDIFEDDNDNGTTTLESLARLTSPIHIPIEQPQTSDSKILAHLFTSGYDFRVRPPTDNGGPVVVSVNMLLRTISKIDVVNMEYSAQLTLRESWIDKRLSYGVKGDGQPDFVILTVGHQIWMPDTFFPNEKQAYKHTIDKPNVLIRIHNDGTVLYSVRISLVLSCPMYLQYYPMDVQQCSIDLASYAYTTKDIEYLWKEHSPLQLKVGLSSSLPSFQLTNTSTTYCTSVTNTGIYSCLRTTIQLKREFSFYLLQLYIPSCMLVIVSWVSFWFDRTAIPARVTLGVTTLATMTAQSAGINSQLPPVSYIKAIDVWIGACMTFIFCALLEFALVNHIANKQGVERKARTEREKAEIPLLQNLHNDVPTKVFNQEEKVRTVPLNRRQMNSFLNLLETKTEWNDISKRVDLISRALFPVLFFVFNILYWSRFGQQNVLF

NCC1(CC(=O)O)CCCCC1 [Gabapentin]
withdrawal threshold ([1]; 1 hour post dose, 100 mg/kg IP): 3.44 ± 0.36 g | reduction of the allodynic response ([1]; 1 hour post-dose, 100 mg/kg IP): 25% | withdrawal threshold ([1]; 2 hours post dose, 100 mg/kg IP): 4.15 ± 0.19 g | reduction of the allodynic response ([1]; 2 hours post-dose, 100 mg/kg IP): 44% | withdrawal threshold ([1]; pre-dose, day 46 post-surgery): 2.46 ± 0.49 g | effect on response to mechanical stimulation in animals previously treated with GTX-01* ([1]; rat, in vivo): no effect

NCC(=O)O [Glycine]
EC100 of change in membrane potential (GlyR α-subunit (hGlyRa1); HEK-293 cells expressing hGlyRa1): approximately 300 μM | EC50 (GlyR): ~100 µM | half-life in the body [2]: 26 to 245 min

NCCS(=O)(=O)O [Taurine]
effect on membrane potential (GlyR α-subunit (hGlyRa1); taurine 1 μM to 1 mM, monomeric hGlyRa1 channel): no direct effect

Ivermectin
EC50 ([3]; HEK-293 cells expressing wild-type GluCl α-subunit alone, 4.5 minutes post addition, read-out: EC50 of change in membrane potential): 0.147 µM | effect of ivermectin on change in membrane potential [4]: did not augment the change in membrane potential

B1: hGlyRa1 (protein, listed as Homo sapiens)
chain: MYSFNTLRLYLWETIVFFSLAASKEAEAARSAPKPMSPSDFLDKLMGRTSGYDARIRPNFKGPPVNVSCNIFINSFGSIAETTMDYRVNIFLRQQWNDPRLAYNEYPDDSLDLDPSMLDSIWKPDLFFANEKGAHFHEITTDNKLLRISRNGNVLYSIRITLTLACPMDLKNFPMDVQTCIMQLESFGYTMNDLIFEWQEQGAVQVADGLTLPQFILKEEKDLRYCTKHYNTGKFTCIEARFHLERQMGYYLIQMYIPSLLIVILSWISFWINMDAAPARVGLGITTVLTMTTQSSGSRASLPKVSYVKAIDIWMAVCLLFVFSALLEYAAVNFVSRQHKELLRFRRKRRHHKSPMLNLFQEDEAGEGRFNFSAYGMGPACLQAKDGISVKGANNSNTTNPPPAPSKSPEEMRKLFIQRAKKIDKISRIGFPMAFLIFNMFYWIIYKIVRREDVHNQ
unstimulated change in membrane potential (GlyR α-subunit (hGlyRa1)): no unstimulated change in membrane potential | effect on histamine-induced increase in intracellular Ca [5]: antagonized

B2: wild-type GluCl α-subunit: fluorescently tagged Caenorhabditis elegans GluCl α-subunit, wild type, expressed from plasmid (protein, UniProt G5EBR3 21-461, looked up)
Glutamate-gated chloride …: QQARTKSQDIFEDDNDNGTTTLESLARLTSPIHIPIEQPQTSDSKILAHLFTSGYDFRVRPPTDNGGPVVVSVNMLLRTISKIDVVNMEYSAQLTLRESWIDKRLSYGVKGDGQPDFVILTVGHQIWMPDTFFPNEKQAYKHTIDKPNVLIRIHNDGTVLYSVRISLVLSCPMYLQYYPMDVQQCSIDLASYAYTTKDIEYLWKEHSPLQLKVGLSSSLPSFQLTNTSTTYCTSVTNTGIYSCLRTTIQLKREFSFYLLQLYIPSCMLVIVSWVSFWFDRTAIPARVTLGVTTLLTMTAQSAGINSQLPPVSYIKAIDVWIGACMTFIFCALLEFALVNHIANKQGVERKARTEREKAEIPLLQNLHNDVPTKVFNQEEKVRTVPLNRRQMNSFLNLLETKTEWNDISKRVDLISRALFPVLFFVFNILYWSRFGQQNVLF
unstimulated change in membrane potential ([3]; no agonist, monomeric expression in HEK-293): no unstimulated change in membrane potential | cell viability (HEK-293 cells): 91.8%
